In ChEMBL document CHEMBL1138755, “A peptide nucleic acid-neamine conjugate that targets and cleaves HIV-1 TAR RNA inhibits viral replication” (J Med Chem, 2004):

Tested on: Human immunodeficiency virus 1
Experiment: Ability of the conjugate to block HIV-1 production when supplemented in a culture medium; NI= No inhibition of the HIV-1 replication even at concentration >5 uM
Type: functional, organism-based

NC[C@H]1O[C@H](O[C@H]2[C@H](O)[C@@H](O)[C@H](N)C[C@@H]2N)[C@H](N)[C@@H](O)[C@@H]1O was tested, and the inhibition was “No inhibition”.
